From ChEMBL document CHEMBL1201862, “PubChem BioAssay data set” (2004)
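Five compound concentrations were applied to cells in 96-well plates for 48 hours; endpoints were derived by simple linear interpolation of the resulting dose-response curve. GI50 is the concentration that inhibits growth by half.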 Active and inactive are the calls of the source. Rule as the data show it: active = GI50 up to about 1.1 µM and inactive = higher.

Legend:
Assay in all cases: DTP human tumour cell line panel, 48 h
M14 = tested on: M14
SR = tested on: SR
SK-OV-3 = tested on: SK-OV-3
UO-31 = tested on: UO-31
CCRF-CEM = tested on: CCRF-CEM
OVCAR-3 = tested on: OVCAR-3
HCT-116 = tested on: HCT-116
COLO 205 = tested on: COLO 205
SF-268 = tested on: SF-268
HOP-92 = tested on: HOP-92
HOP-62 = tested on: HOP-62
UACC-257 = tested on: UACC-257
NCI-H522 = tested on: NCI-H522
MOLT-4 = tested on: MOLT-4
IGROV-1 = tested on: IGROV-1
OVCAR-4 = tested on: OVCAR-4
SN12C = tested on: SN12C
K562 = tested on: K562
MCF7 = tested on: MCF7
NCI/ADR-RES = tested on: NCI/ADR-RES

Measured: GI50

O=C(NN1C(=O)C(Cl)C1c1ccccc1O)c1ccccc1O (stereo unspecified)
inactive: M14 18.3 µM | SR 17.8 µM | SK-OV-3 16.1 µM | UO-31 21.3 µM | CCRF-CEM 5.12 µM | OVCAR-3 3.13 µM | HCT-116 3.69 µM | COLO 205 21.4 µM | SF-268 44.1 µM | HOP-92 > 100 µM | HOP-62 29 µM | UACC-257 22.2 µM | NCI-H522 29 µM | MOLT-4 23.2 µM | IGROV-1 30.6 µM | OVCAR-4 22.5 µM | SN12C 89.5 µM | K562 32.4 µM

C=C(C)[C@@H]1CC[C@@H]2C(=CC[C@]3(C)C([C@H](C)CC/C=C(/C)C(=O)O)CC[C@@]23C)[C@@]1(C)CCC(=O)O (stereo partly specified)
inactive: M14 29.5 µM | SR 21.3 µM | SK-OV-3 37.7 µM | UO-31 16.7 µM | MCF7 39.6 µM | CCRF-CEM 21.9 µM | OVCAR-3 19.9 µM | HCT-116 22.3 µM | COLO 205 22.6 µM | SF-268 37.7 µM | HOP-92 19.2 µM | HOP-62 52.8 µM | UACC-257 23.8 µM | NCI-H522 22.7 µM | IGROV-1 28.2 µM | OVCAR-4 36.6 µM | SN12C 33.4 µM | K562 33 µM

Cc1cnc(Cl)nc1C(C#N)c1nc2ccccc2s1 (stereo unspecified)
inactive: M14 28 µM | SK-OV-3 18 µM | UO-31 31.7 µM | OVCAR-3 25.5 µM | HCT-116 10.5 µM | COLO 205 14.2 µM | SF-268 15.7 µM | HOP-92 7.33 µM | HOP-62 22.2 µM | UACC-257 31.7 µM | NCI-H522 2.84 µM | MOLT-4 63.5 µM | IGROV-1 21.6 µM | OVCAR-4 22.8 µM | SN12C 14.1 µM | NCI/ADR-RES 22 µM

NC(=O)c1c[se]c(C2OC(COP(=O)(O)CP(=O)(O)OCC3OC(n4cnc5c(N)ncnc54)C(O)C3O)C(O)C2O)n1 (stereo unspecified)
inactive: M14 72.8 µM | SR 35 µM | SK-OV-3 > 100 µM | UO-31 > 100 µM | CCRF-CEM 29.1 µM | OVCAR-3 > 100 µM | HCT-116 52.1 µM | COLO 205 93.1 µM | SF-268 > 100 µM | HOP-92 > 100 µM | HOP-62 > 100 µM | UACC-257 > 100 µM | NCI-H522 > 100 µM | MOLT-4 35.3 µM | IGROV-1 84.3 µM | OVCAR-4 > 100 µM | SN12C > 100 µM | K562 15.9 µM

O=[N+]([O-])c1ccc(/C=N/Nc2nc3ccccc3[nH]2)o1
inactive: M14 12.7 µM | SR 7.71 µM | SK-OV-3 33.7 µM | UO-31 18.7 µM | CCRF-CEM 8.39 µM | OVCAR-3 11.1 µM | HCT-116 14.8 µM | COLO 205 10.6 µM | SF-268 24.4 µM | HOP-92 17.4 µM | HOP-62 15.8 µM | UACC-257 21.2 µM | NCI-H522 13.3 µM | MOLT-4 11.2 µM | IGROV-1 12.6 µM | OVCAR-4 8.69 µM | SN12C 15.7 µM | NCI/ADR-RES 24.6 µM | K562 13.1 µM

COc1cccc2c(Nc3ccc(S(=O)(=O)Nc4ncccn4)cc3)c3ccc([N+](=O)[O-])cc3nc12
inactive: M14 45.1 µM | SR 1.95 µM | SK-OV-3 54.6 µM | UO-31 5.66 µM | MCF7 47.1 µM | CCRF-CEM 9.82 µM | OVCAR-3 > 100 µM | HCT-116 22.4 µM | COLO 205 60.7 µM | SF-268 > 100 µM | HOP-92 12.4 µM | HOP-62 85.3 µM | UACC-257 > 100 µM | NCI-H522 66.1 µM | MOLT-4 14.3 µM | IGROV-1 4.13 µM | OVCAR-4 > 100 µM | SN12C 92.7 µM | K562 23 µM

COc1cccc(NC(=O)CSc2nnc(-c3ccc(NC(C)=O)cc3)o2)c1
inactive: M14 > 100 µM | SR 90.2 µM | SK-OV-3 > 100 µM | UO-31 80.4 µM | CCRF-CEM 79.1 µM | OVCAR-3 > 100 µM | HCT-116 > 100 µM | COLO 205 > 100 µM | SF-268 > 100 µM | HOP-92 > 100 µM | HOP-62 > 100 µM | UACC-257 > 100 µM | NCI-H522 > 100 µM | MOLT-4 > 100 µM | IGROV-1 50 µM | OVCAR-4 > 100 µM | SN12C > 100 µM | K562 > 100 µM
